# Article PMC9179341, “Design of New Potent and Selective Thiophene-Based KV1.3 Inhibitors and Their Potential for Anticancer Activity” (Cancers, 2022)
# Entries after “also recorded” stand apart in the source; their conditions may differ.
# Assays:
# Colo-357 tumor spheroids = assay: Apoptosis (caspase 3/7 activity) in Colo-357 tumor spheroids; format: cell-based; conditions: with 8.9 µM cycloheximide, up to 100 µM
# Protocol: (§1) Cell lines Panc-1 (ACC 783) and Colo-357 (CVCL_0221) were obtained through the validated collection of the pHioniC consortium (MSC-ITN 813834). Both cell lines were grown in RPMI1640, supplemented with 1 mM sodium pyruvate and 1% Glutamax (all Gibco Thermo-Fisher, Waltham, MA USA) 10%FBS (BioChrom, Berlin, Germany), at 5% CO2 and 37 °C in a humidified atmosphere.
# (§2) Spheroids were cultured in round bottom ultra-low attachment 96-well plates (Corning). The optimal seeding densities were empirically determined (8000 cells/well for Colo-357 or 10,000 cells/well for Panc-1 spheroids. The cells were suspended in 2% Matrigel (Corning), centrifuged at 1000× g for 10 min and the spheroids were allowed to form in the incubator. Once the spheroids were formed, the treatments indicated together with 8.9 µM cycloheximide (as apoptosis sensitizer) were added and apoptosis was determined by live imaging in the Incucyte system in real time for approximately 60 h using Caspase-3/7 green reagent (Sartorius) as a reporter of apoptosis, which crosses the cell membrane and is cleaved by the activated Caspase-3/7, resulting in the fluorescent staining of nuclear DNA. Apoptosis on Panc-1 tumor spheroids is presented as integrated green fluorescence in the whole spheroid.
# [1] = Turbidimetric solubility assay; format: physicochemical
# Protocol: For the phosphate-buffered saline, we dissolved 2.38 g of disodium hydrogen phosphate dodecahydrate, 0.19 g of potassium dihydrogen phosphate, and 8.0 g of sodium chloride in water and diluted it to 1000 mL with the same solvent. Then we adjusted the pH to 7.4. The stock DMSO solutions of the compounds were prepared at concentrations of 50 mM, 20 mM, 10 mM, and 1 mM. The final solutions (500 µM, 200 µM, 100 µM, and 10 µM) were prepared by adding 2 µL of the stock DMSO solution to 198 µL of phosphate-buffered saline. The absorbance (area scan) was measured at 620 nm for sample volume of 200 µL and the appearance of the solutions was checked by visual inspection.
# [2] = test system: other KV1.x family channels or more distantly related channels; design: method as in PMID 32199306; conditions: cited from earlier work
# KV1.3 = KV1.3 (Homo sapiens, UniProt P22001); design: method as in PMID 32199306; conditions: applied ex vivo to Kv1.3 expressing oocytes; read-out: IC50 KV1.3 (previous work); cited from earlier work
# KV1.3, sequence (P22001 whole entry): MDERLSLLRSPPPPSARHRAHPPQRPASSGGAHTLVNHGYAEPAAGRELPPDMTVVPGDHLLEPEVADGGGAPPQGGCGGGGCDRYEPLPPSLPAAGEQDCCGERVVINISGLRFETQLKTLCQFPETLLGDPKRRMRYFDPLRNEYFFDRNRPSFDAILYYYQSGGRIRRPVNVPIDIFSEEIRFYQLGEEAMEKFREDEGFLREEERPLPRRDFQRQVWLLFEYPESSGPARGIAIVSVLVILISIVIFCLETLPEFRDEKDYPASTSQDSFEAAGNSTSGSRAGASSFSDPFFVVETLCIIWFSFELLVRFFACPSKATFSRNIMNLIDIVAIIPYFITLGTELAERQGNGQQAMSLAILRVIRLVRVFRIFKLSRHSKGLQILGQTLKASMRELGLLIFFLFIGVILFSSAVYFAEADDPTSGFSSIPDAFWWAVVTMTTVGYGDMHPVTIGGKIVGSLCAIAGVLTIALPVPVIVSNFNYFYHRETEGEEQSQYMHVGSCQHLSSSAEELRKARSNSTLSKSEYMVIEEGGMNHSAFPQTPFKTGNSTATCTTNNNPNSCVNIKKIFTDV
# Panc-1 cell line = test system: Panc-1 cell line; design: method as in PMID 29034212; conditions: Panc-1; 20 µM; cited from earlier work
# Colo-357 = test system: Colo-357; design: method as in PMID 29034212; conditions: read-out: EC50 cell death; cited from earlier work
# [3] = test system: KV1.1, KV1.2, KV1.5 and KV3.1; design: method as in PMID 19104661; conditions: cited from earlier work
# [4] = test system: cancer cells (human SAOS2, mouse B16F10 melanoma, and human B-CLL); conditions: PAP-1 20 µM, clofazimine 1 or 10 µM, with MDRi cyclosporine H (4 µM) and probenecid (100 µM); cited from earlier work
# [5] = test system: pancreatic ductal adenocarcinoma (PDAC) cell lines; conditions: cited from earlier work
# [6] = test system: orthotopic PDAC xenotransplantation model; conditions: orthotopic PDAC xenotransplantation model in SCID beige mice; cited from earlier work
# KV1.1 = KV1.1 (Rattus norvegicus, UniProt P10499); assay: Selectivity, HiClamp Xenopus laevis heterologous expression system, KV1.1; format: cell-based; conditions: 10 µM; HiClamp, oocytes
# KV1.1, sequence (P10499 whole entry): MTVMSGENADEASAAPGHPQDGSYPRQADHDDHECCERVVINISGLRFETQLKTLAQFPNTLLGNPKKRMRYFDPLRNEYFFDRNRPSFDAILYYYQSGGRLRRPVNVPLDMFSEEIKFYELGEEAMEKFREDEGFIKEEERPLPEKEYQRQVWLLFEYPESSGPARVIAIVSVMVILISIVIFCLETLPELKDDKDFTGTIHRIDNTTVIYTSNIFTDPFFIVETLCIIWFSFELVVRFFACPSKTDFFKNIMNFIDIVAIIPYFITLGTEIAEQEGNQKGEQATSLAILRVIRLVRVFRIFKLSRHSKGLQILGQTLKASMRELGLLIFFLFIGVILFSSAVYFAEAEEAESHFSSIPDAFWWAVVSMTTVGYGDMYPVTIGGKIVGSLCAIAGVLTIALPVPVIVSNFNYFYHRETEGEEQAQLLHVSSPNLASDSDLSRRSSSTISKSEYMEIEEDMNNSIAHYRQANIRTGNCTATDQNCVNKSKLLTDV
# Protocol: (§3) Ion channels (Kv1.x, Kv2.1, Kv4.2, Kv10.1) were expressed in Xenopus laevis oocytes by linearization of the plasmids and subsequent in vitro transcription using a commercial T7 or SP6 mMESSAGE mMACHINE transcription kit (Ambion, Carlsbad, California, USA). Defolliculated Xenopus oocytes were then injected with 20–50 nL of the cRNA at a concentration of 1 ng/nL using a micro-injector (Drummond Scientific1, Broomall, PA, USA). The oocytes were incubated in a solution containing (in mM): NaCl, 96; KCl, 2; CaCl2, 1.8; MgCl2, 2 and HEPES, 5 (pH 7.5), supplemented with 50 mg/L gentamycin sulfate and 90 mg/L theophylline. After ex vivo translation, the ion channels were correctly inserted in the cell membrane of the oocytes.
# (§4) Two-electrode voltage-clamp recordings were performed at room temperature (18–22 °C) using a Geneclamp 500 amplifier (Molecular Devices, San Jose, CA, USA) and pClamp data acquisition (Axon Instruments, Union City, CA, USA) and using an integrated digital TEVC amplifier controlled by HiClamp, an automated Voltage-Clamp Screening System (Multi Channel Systems MCS GmbH, Reutlingen, Germany). Whole-cell currents from oocytes were recorded 1–4 days after injection. The bath solution composition was ND96 (in mM): NaCl, 96; KCl, 2; CaCl2, 1.8; MgCl2, 2 and HEPES, 5 (pH 7.5). Voltage and current electrodes were filled with a 3 M solution of KCl in H2O. Resistances of both electrodes were kept between 0.5 and 1.5 MΩ. The elicited Kv1.x, Kv2.1, Kv4.2 and Kv10.1 currents were filtered at 0.5 kHz and sampled at 2 kHz using a four-pole low-pass Bessel filter. Leak subtraction was performed using a P/4 protocol.
# (§5) For the electrophysiological analysis of the compounds, a number of protocols were applied from a holding potential of −90 mV. Currents for Kv1.x, Kv2.1, Kv4.2 and Kv10.1 were evoked by 1 s depolarizing pulses either to 0 mV or to a range of voltage steps between −80 mV and +40 mV. For the analysis of the data, only the inhibition at the 0 mV step was used. The concentration dependency of all compounds was assessed by measuring the current inhibition in the presence of increasing compound concentrations. […] From this stock solution, adequate dilutions with a maximum of 0.5% DMSO were made for testing.
# (§6) All electrophysiological data (Figure S1) are presented as means ± S.E.M of n ≥ three independent experiments unless otherwise indicated. All data were analyzed using pClamp Clampfit 10.4 (Molecular Devices, Downingtown, PA, USA), OriginPro 9 (Originlab, Northampton, MA, USA), GraphPad Prism 8 software (GraphPad Software, Inc., San Diego, CA, USA) and DataMining (Multi Channel Systems MCS GmbH, Reutlingen, Germany). The Dunnett test and one-way ANOVA were performed to calculate the significance of the induced inhibition compared to the control.
# KV1.2 = KV1.2 (Homo sapiens, UniProt P16389); assay: Selectivity, HiClamp Xenopus laevis heterologous expression system, KV1.2; format: cell-based; conditions: 10 µM; HiClamp, oocytes
# KV1.2, sequence (P16389 whole entry): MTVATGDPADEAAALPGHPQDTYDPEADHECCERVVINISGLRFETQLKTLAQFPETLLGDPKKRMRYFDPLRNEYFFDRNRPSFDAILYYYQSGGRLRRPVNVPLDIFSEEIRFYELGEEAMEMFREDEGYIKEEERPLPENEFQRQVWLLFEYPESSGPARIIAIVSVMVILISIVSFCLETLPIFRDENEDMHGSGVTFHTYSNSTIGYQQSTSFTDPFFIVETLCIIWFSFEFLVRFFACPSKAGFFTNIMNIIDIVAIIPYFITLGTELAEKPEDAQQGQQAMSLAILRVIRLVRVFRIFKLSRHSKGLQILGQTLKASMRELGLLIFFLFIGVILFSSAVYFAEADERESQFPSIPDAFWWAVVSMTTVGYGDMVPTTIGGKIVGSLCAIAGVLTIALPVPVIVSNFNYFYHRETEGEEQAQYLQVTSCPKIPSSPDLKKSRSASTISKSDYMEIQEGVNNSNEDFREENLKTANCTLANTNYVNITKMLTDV
# Protocol: as §3, §4, §5, §6
# KV1.4 = KV1.4 (Homo sapiens, UniProt P22459); assay: Selectivity, HiClamp Xenopus laevis heterologous expression system, KV1.4; format: cell-based; conditions: 10 µM; HiClamp, oocytes
# KV1.4, sequence (P22459 whole entry): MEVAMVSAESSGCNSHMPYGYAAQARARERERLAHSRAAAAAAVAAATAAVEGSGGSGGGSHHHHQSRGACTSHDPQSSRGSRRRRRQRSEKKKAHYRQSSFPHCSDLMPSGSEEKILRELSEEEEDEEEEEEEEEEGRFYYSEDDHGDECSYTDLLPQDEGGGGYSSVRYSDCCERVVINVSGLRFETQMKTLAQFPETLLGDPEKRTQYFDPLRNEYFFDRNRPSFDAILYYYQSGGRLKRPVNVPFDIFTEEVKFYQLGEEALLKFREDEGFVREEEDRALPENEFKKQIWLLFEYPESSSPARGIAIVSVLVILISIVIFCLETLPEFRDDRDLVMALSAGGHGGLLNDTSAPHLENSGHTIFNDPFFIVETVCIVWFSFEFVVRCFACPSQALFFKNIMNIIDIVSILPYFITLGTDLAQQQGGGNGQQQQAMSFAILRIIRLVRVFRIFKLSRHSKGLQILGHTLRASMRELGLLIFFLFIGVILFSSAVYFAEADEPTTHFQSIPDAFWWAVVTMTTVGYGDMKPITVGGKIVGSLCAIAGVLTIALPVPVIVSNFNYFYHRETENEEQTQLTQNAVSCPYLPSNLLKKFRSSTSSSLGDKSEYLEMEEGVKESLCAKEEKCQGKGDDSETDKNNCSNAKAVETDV
# Protocol: as §3
# as §4, with “Resistances of both electrodes were kept between 0.5 and 1.5 MΩ. The elicited Kv1.x, Kv2.1, Kv4.2 and Kv10.1 currents were filtered at 0.5 kHz and sampled at 2 kHz using a four-pole low-pass Bessel filter. Leak subtraction was performed using a P/4 protocol.” left out
# (§7) For the electrophysiological analysis of the compounds, a number of protocols were applied from a holding potential of −90 mV. […] The concentration dependency of all compounds was assessed by measuring the current inhibition in the presence of increasing compound concentrations. […]
# as §6, with “The Dunnett test and one-way ANOVA were performed to calculate the significance of the induced inhibition compared to the control.” left out
# KV1.5 = KV1.5 (Homo sapiens, UniProt P22460); assay: Selectivity, HiClamp Xenopus laevis heterologous expression system, KV1.5; format: cell-based; conditions: 10 µM; HiClamp, oocytes
# KV1.5, sequence (P22460 whole entry): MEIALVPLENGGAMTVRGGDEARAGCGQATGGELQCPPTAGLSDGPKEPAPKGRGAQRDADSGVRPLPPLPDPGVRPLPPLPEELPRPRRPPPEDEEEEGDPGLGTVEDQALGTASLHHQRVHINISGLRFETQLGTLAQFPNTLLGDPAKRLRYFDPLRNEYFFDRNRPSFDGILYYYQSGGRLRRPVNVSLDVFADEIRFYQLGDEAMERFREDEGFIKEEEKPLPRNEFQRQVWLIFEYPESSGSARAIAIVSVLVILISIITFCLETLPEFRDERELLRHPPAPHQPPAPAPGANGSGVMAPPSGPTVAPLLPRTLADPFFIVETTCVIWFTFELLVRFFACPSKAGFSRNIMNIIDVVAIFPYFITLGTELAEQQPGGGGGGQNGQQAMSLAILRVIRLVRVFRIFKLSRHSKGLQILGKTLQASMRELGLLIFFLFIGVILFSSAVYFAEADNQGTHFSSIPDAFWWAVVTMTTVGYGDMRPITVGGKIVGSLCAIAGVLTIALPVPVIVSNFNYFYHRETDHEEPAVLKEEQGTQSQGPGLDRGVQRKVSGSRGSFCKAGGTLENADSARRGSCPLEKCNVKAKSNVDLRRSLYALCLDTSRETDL
# Protocol: as §3, §4, §5, §6
# KV1.6 = KV1.6 (Homo sapiens, UniProt P17658); assay: Selectivity, HiClamp Xenopus laevis heterologous expression system, KV1.6; format: cell-based; conditions: 10 µM; HiClamp, oocytes
# KV1.6, sequence (P17658 whole entry): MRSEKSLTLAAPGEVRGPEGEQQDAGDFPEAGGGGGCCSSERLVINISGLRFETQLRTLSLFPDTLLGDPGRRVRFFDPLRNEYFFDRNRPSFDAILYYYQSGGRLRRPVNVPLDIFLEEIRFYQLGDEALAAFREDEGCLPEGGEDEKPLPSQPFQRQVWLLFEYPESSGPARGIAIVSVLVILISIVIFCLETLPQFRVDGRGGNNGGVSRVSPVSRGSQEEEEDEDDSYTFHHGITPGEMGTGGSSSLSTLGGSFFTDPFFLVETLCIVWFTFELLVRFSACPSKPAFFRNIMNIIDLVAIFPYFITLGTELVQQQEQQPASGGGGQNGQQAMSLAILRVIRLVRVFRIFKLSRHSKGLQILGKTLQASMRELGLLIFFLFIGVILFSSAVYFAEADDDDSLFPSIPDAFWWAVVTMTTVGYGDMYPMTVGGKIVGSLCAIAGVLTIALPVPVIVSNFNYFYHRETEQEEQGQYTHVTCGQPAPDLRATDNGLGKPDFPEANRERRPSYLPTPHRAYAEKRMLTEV
# Protocol: as §3, §4, §5, §6
# KV2.1 = molecular target: T1, KV2.1 (Homo sapiens, UniProt Q14721); assay: Selectivity, HiClamp Xenopus laevis heterologous expression system, KV2.1; format: cell-based; conditions: 10 µM; HiClamp, oocytes
# T1 sequence (Q14721 1-858): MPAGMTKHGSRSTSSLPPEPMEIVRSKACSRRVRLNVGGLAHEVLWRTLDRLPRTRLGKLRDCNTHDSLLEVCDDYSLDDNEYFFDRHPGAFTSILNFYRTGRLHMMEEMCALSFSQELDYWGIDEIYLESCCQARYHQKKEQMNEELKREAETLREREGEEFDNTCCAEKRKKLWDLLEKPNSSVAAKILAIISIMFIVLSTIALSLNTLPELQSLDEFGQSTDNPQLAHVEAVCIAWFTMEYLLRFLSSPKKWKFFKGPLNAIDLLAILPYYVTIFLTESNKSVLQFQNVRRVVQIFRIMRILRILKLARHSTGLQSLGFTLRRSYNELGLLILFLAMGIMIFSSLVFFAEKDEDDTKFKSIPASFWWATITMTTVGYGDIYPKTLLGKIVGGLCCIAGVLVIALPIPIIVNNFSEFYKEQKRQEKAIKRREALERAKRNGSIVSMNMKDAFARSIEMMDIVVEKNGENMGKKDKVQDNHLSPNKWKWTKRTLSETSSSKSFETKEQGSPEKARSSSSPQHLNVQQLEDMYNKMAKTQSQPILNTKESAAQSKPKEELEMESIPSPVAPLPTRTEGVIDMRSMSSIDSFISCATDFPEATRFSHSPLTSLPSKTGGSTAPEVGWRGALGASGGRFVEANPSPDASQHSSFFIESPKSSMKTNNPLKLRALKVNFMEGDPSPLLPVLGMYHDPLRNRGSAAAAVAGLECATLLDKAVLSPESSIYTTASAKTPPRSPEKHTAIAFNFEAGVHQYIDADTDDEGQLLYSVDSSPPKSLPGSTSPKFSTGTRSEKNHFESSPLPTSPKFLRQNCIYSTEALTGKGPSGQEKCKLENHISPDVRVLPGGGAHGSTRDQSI
# Protocol: as §3
# as §4, with “Resistances of both electrodes were kept between 0.5 and 1.5 MΩ. The elicited Kv1.x, Kv2.1, Kv4.2 and Kv10.1 currents were filtered at 0.5 kHz and sampled at 2 kHz using a four-pole low-pass Bessel filter. Leak subtraction was performed using a P/4 protocol.” left out
# as §7
# as §6, with “The Dunnett test and one-way ANOVA were performed to calculate the significance of the induced inhibition compared to the control.” left out
# KV4.2 = KV4.2 (Homo sapiens, UniProt Q9NZV8); assay: Selectivity, HiClamp Xenopus laevis heterologous expression system, KV4.2; format: cell-based; conditions: 10 µM, oocytes
# KV4.2, sequence (Q9NZV8 whole entry): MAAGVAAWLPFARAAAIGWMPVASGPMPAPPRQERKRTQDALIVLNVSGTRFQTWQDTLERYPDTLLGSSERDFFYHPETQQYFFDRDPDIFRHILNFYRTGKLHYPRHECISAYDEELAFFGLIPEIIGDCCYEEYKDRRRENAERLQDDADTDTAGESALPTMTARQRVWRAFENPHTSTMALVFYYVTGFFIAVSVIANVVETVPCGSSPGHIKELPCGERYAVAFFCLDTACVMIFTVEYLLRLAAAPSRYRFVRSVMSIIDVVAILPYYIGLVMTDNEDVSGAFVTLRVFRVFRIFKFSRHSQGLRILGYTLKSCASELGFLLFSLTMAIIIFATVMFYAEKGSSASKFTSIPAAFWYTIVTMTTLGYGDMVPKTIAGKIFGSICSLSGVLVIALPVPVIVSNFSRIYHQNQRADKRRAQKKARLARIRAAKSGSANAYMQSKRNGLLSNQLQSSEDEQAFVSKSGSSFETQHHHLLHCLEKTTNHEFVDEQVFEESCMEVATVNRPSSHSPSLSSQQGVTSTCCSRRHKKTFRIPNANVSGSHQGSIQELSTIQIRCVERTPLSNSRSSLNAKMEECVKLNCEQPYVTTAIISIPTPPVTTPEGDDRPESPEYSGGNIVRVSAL
# Protocol: as §3, with “After ex vivo translation, the ion channels were correctly inserted in the cell membrane of the oocytes.” left out
# (§8) Two-electrode voltage-clamp recordings were performed at room temperature (18–22 °C) using a Geneclamp 500 amplifier (Molecular Devices, San Jose, CA, USA) and pClamp data acquisition (Axon Instruments, Union City, CA, USA) and using an integrated digital TEVC amplifier controlled by HiClamp, an automated Voltage-Clamp Screening System (Multi Channel Systems MCS GmbH, Reutlingen, Germany). Whole-cell currents from oocytes were recorded 1–4 days after injection. […]
# as §7
# KV10.1 = KV10.1 (Homo sapiens, UniProt O95259); assay: Selectivity, HiClamp Xenopus laevis heterologous expression system, KV10.1; format: cell-based; conditions: 10 µM; HiClamp, oocytes
# KV10.1, sequence (O95259 whole entry): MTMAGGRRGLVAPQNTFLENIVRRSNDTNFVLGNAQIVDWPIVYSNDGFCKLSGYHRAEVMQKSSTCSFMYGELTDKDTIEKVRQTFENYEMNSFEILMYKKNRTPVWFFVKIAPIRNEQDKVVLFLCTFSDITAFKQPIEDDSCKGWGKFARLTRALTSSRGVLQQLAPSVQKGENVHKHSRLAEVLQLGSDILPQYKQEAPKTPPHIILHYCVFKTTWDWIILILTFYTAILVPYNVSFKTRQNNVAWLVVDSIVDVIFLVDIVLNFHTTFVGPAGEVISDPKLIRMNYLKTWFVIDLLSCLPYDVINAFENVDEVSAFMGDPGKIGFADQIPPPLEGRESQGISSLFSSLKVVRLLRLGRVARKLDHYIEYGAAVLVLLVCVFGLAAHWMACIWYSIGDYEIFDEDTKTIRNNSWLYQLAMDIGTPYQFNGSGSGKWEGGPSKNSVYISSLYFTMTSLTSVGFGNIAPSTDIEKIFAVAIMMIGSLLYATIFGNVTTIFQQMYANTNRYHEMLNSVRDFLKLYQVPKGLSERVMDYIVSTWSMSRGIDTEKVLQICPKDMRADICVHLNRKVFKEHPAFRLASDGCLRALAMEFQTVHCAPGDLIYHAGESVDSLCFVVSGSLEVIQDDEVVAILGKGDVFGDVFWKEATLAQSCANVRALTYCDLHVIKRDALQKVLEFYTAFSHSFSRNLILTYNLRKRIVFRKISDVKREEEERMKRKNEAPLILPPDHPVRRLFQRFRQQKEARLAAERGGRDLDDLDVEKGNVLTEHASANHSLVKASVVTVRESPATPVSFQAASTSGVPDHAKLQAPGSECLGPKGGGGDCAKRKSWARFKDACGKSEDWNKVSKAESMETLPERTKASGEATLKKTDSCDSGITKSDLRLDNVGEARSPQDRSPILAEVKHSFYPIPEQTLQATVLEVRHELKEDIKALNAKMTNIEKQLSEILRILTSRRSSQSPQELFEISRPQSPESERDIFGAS
# Protocol: as §3, with “After ex vivo translation, the ion channels were correctly inserted in the cell membrane of the oocytes.” left out
# as §8, §7
# Panc-1 tumor spheroids = assay: Apoptosis (caspase 3/7 activity) in Panc-1 tumor spheroids; format: cell-based; conditions: with 8.9 µM cycloheximide
# Protocol: as §1, §2
compound,measurement,setting,value
COc1ccccc1C(=O)NCC1(c2ccsc2)CCCC1 [Compound 4],Induction of apoptosis in Colo-357 spheroids,Colo-357 tumor spheroids,significant induction of apoptosis; also recorded: induced a significant amount of apoptosis
same,absorbance at 620 nm,[1]; 10 µM in PBS with 1 % final DMSO,0
same,absorbance at 620 nm,[1]; 100 µM in PBS with 1 % final DMSO,"0,035"
same,absorbance at 620 nm,[1]; 200 µM in PBS with 1 % final DMSO,"0,127"
same,absorbance at 620 nm,[1]; 500 µM in PBS with 1 % final DMSO,"0,189"
same,Effect on other KV1.x family channels or more distantly related channels,[2],did not affect
COc1ccccc1C(=O)NCC1(c2ccccc2)CCOCC1 [Compound 5],IC50,KV1.3,920 nM
"CC(C)/N=c1\cc2n(-c3ccc(Cl)cc3)c3ccccc3nc-2cc1Nc1ccc(Cl)cc1 [clofazimine (3), clofazimine]",cell death,Panc-1 cell line,less than 30%
same,EC50,Colo-357,1500 nM
same,"Potency on KV1.3 relative to KV1.1, KV1.2, KV1.5 and KV3.1",[3],tenfold higher potency
same,Induction of apoptosis in cancer cells,[4],induced mild apoptosis
same,EC50 apoptosis in PDAC cell lines,[5],micromolar range
same,Induction of apoptosis in PDAC cell lines,[5],induced significant apoptosis
same,Primary tumor weight,[6],significantly reduced
"O=c1ccc2c(OCCCCOc3ccccc3)c3ccoc3cc2o1 [PAP-1 (1), PAP-1, reference compound]",Effect on KV1.1 channel,KV1.1,no significant effects
same,Effect on KV1.2 channel,KV1.2,no significant effects
same,Effect on KV1.4 channel,KV1.4,no significant effects
same,Effect on KV1.5 channel,KV1.5,no significant effects
same,Effect on KV1.6 channel,KV1.6,no significant effects
same,Effect on KV2.1 channel,KV2.1,no significant effects
same,Effect on KV4.2 channel,KV4.2,no significant effects
same,Effect on KV10.1 channel,KV10.1,no significant effects
same,Induction of apoptosis in Panc-1 spheroids,Panc-1 tumor spheroids,did and induce significant apoptosis
same,Induction of apoptosis in cancer cells,[4],induced mild apoptosis
